From patent US20250034592A1, “NEUROPEPTIDE-[…] AND METHODS FOR THE TREATMENT OF EPILEPSY” (CHARITE - UNIVERSIT[…], priority 2016, published 2025)

Test system: pDyn deficient mice
Assay: Seizure threshold, pentylenetetrazole (PTZ) tail-vein infusion
Assay type: in vivo
Conditions: FIG. 6; for potency in seizure threshold test: compared with Dyn B
Text: Pentylenetetrazole is an inhibitor of GABAA receptors and induces seizures upon injection into the tail vein. pDyn deficient animals display a reduce seizure threshold compared to wild-type mice. […] From this, we expect an early onset of the effect of gene therapy and a lower number of vectors needed per patient.
The seizure threshold is a measure for the susceptibility to develop seizures. The resistance against seizure-inducing agents or stimuli is used as readout in animals. Infusion of pentylenetetrazole, a GABAA receptor antagonist, into the tail vein of rodents is an accepted method to measure the seizure threshold. […] This can be rescued by kappa opioid receptors agonists.
Seizure threshold was determined by pentylenetetrazole (PTZ) (see FIG. 6) tail-vein infusion on freely moving pDyn deficient mice at a rate of 100 μl/min ([…] PTZ in saline, pH 7.4). […] The seizure threshold dose was calculated from the infused volume in relation to body weight. Dyn B or modified variants thereof were dissolved in DMSO and diluted to the final dosages in saline containing final concentrations of 10% DMSO, 3% Tween 80. 3 μl of peptide-solution were applied 30 min. before tail-vein infusion under mild sevoflurane anaesthesia into the cisterna magna. The following peptides were tested: Dyn B=SEQ ID No. 8, Dyn B G3A=SEQ ID 10 No. 11 wherein Z at position 3 is alanine, Dyn B G3A+Q8A=SEQ ID No. 11 wherein Z at position 3 is alanine and Z at position 8 of SEQ ID No. 11 is alanine, Dyn B Q8A=SEQ ID No. 11 wherein Z at position 8 is alanine.

Substance	potency in seizure threshold test	seizure threshold (peptide applied into cisterna magna 30 min before)
Dyn B G3A+Q8A: SEQ ID No. 11 wherein Z at position 3 is alanine and Z at position 8 is alanine (YGAFLRRAFKVVT; VARIANT 3 Any amino acid; VARIANT 8 Any amino acid; listed as Homo sapiens)	higher potency	
Dyn B G3A: SEQ ID No. 11 (YGZFLRRZFKVVT) wherein Z at position 3 is alanine (YGAFLRRXFKVVT; VARIANT 3 Any amino acid; VARIANT 8 Any amino acid; listed as Homo sapiens)	higher potency	
Dynorphin B [Dyn B, reference compound]		rescued
